Our source for the Activity values is ChEMBL document CHEMBL5532652, “Design and synthesis of pterostilbene derivatives bearing triazole moiety that might treat DSS-induced colitis in mice through modulation of NF-κB/MAPK signaling pathways” (Eur J Med Chem, 2024).

Molecules are shown by their SMILES. Calls of active or inactive are those of the source. The rule behind the calls is not given here.

In data set [1] the test system is RAW264.7. Put plainly: Anti-inflammatory activity in LPS-stimulated mouse RAW264.7 cells assessed as inhibition of p65 phosphorylation at 0.5 to 2 uM preincubated with compound for 1 hr followed by LPS stimulation and measured after 30 mins by Western blot analysis. In kind it is functional, cell-based. The following applies: dose 0.5-2 µM, time 1.5 hrs. A general note: Immunoblotting shows a protein as a band on a membrane.

The subject of data set [2] is RAW264.7. Kind of data set: Anti-inflammatory activity in LPS-stimulated mouse RAW264.7 cells assessed as reduction in JNK level at 0.5 to 2 uM preincubated with compound for 1 hr followed by LPS stimulation and measured after 30 mins by Western blot analysis. The settings on record: dose 0.5-2 µM, time 1.5 hrs. In kind it is functional, cell-based.
Data set [3] is described as follows: Acute toxicity in male C57BL/6 mouse assessed as effect on fur laxity at 1000 to 2000 mg/kg, po measured for 14 days. In kind it is organism-based. The following applies: in vivo, 336 h, dose 1000-2000 mg/kg, time 14 day.
The test system of data set [4] is Mus musculus. Put plainly: Anti-inflammatory activity against DSS-induced acute colitis C57BL/6J mouse model assessed as decrease in neutrophil infiltration in colon at 10 to 20 mg/kg, po measured for 7 days. The settings on record: dose 10-20 mg/kg, time 7.0 day. In kind it is functional, organism-based.
Data set [5] can be described thus: Acute toxicity in C57BL/6 mouse assessed as kidney damage at 1000 mg/kg, po measured for 14 days. The settings on record: in vivo, 336 h, time 14 day. In kind it is organism-based.
A short description of data set [6]: Acute toxicity in C57BL/6 mouse assessed as spleen damage at 1000 mg/kg, po measured for 14 days. In kind it is organism-based. The settings on record: in vivo, 336 h, time 14 day.
Data set [7] is described as follows: Acute toxicity in male C57BL/6 mouse assessed as anorexia at 1000 to 2000 mg/kg, po measured for 14 days. The class given is organism-based. The settings on record: in vivo, 336 h, dose 1000-2000 mg/kg, time 14 day.
Data set [8] concerns Mus musculus. Kind of data set: Anti-inflammatory activity against DSS-induced acute colitis C57BL/6J mouse model assessed as reduction in edema at 10 to 20 mg/kg, po measured for 7 days. In kind it is functional, organism-based. The settings on record: dose 10-20 mg/kg, time 7.0 day.
The subject of data set [9] is RAW264.7. Kind of data set: Anti-inflammatory activity against LPS-stimulated mouse RAW264.7 cells assessed as downregulation of LPS-induced iNOS expression at 0.5 to 2 uM preincubated with compound for 1 hr followed by LPS stimulation and measured after 24 hrs by Western blot analysis. The following applies: dose 0.5-2 µM, time 25.0 hrs. The class given is functional, cell-based.

Data set [10] is described as follows: Toxicity in C57BL/6 mouse assessed as body weight loss at 20 mg/kg, po measured for 7 days. The settings on record: in vivo, 168 h, time 7 day. In kind it is organism-based.

For `C=CCOc1ccc(/C=C/c2cc(OC)cc(OC)c2-c2cnnn2C(=O)NCCCl)cc1`, the result with RAW264.7 [1], in the data set with RAW264.7 [2], in the data set on Mus musculus [4], with Mus musculus [8] and with RAW264.7 [9] was Active. The Activity entry in data set [3] is on record as “Non-Toxic”; in data set [5] it was “Non-Toxic”; in [6], “Non-Toxic”; in [7], “Non-Toxic”; in [10], “Toxic”.
